Structures can show the parent of a compound that is named as a salt.
Assays:
[1] = target: Topoisomerase IIalpha (Topo IIa) (Homo sapiens, UniProt P11388); experiment: Topo II kDNA decatenation assay (agarose gel); assay type: biochemical
Protocol: Thus the linear polyamine-anthracene conjugates herein disclosed (e.g., compound 4) were evaluated as Topo II inhibitors. A well established in vitro Topo II assay (as used previously) allowed us to determine whether these new conjugates (previously described compound A and novel compound 4 of the present invention) have the ability to inhibit Topo II by preventing Topo IIa from decatenating (i.e., disentangling) kinetoplast DNA (kDNA).
A negative image of agarose gel electrophoresis is visualized under UV light. Drugs were incubated with kDNA (200 ng) and Topo IIa (4 units) in reaction buffer prior to loading onto the gel. Neg. Control (−): kDNA only; Pos. Control (+): kDNA+Topo II (without conjugate); Inhibitory Control (B, rightmost lane): Berenil (50 μM). All other lanes contain the corresponding conjugate at the listed μM concentrations. Positive Topo II activity is shown by the formation of nicked open circular (NOC) DNA (middle band) and covalently closed circular (CCC) DNA (bottom band). Inhibition is shown by the negative activity of Topo II where kDNA (top band) is not decatenated and remains in the well.
When kDNA was not incubated with drug and Topo II (negative control), no migration occurred on the gel and the kDNA remained in the well as expected, which was indicated by the single top band visualized in the well. When kDNA was incubated with Topo II in the absence of drug, the top band in the well disappeared completely while two bands representing the two decatenated products could be seen.

[2] = test system: CHO-MG cells; experiment: CHO-MG cytotoxicity (PAT-deficient mutant cells); assay type: cell-based, Chinese hamster; details: Cricetulus griseus, no PAT activity, read-out: CHOMG IC50
Protocol: Chinese hamster ovary cells which are chemically mutated to be polyamine transport-deficient will be referred to as the CHO-MG cell line. […] The PAT targeting selectivity was determined using a Chinese hamster cell assay. The CHO wild type cells have active polyamine transport activity and therefore should be very susceptible to the polyamine conjugate and give low IC50 values. […] The lower the value the more cytotoxic the drug is to that cell type. In contrast, the mutant CHO-MG cells, which have no PAT activity are not as sensitive to the polyamine conjugate (which is unable to enter these cells via the defective PAT) and give higher IC50 values. We express these as a ratio of the IC50 value in CHOMG/IC50 value in CHO. The higher the ratio the more PAT selective is the polyamine conjugate drug. […] Cytotoxicity experiments were also performed in murine leukemia cells (L1210, Table 3) with and without the presence of difluoromethylornithine (DFMO), a known inhibitor of ornithine decarboxylase (the enzyme responsible for polyamine biosynthesis). Typically, when one blocks the ability of cells to synthesize polyamines, the cells respond by increasing their import of extracellular polyamines via PAT. Therefore, if our drugs are PAT-selective we should see a lowering of their respective IC50 values in the presence of DFMO, a molecule which facilitates the drug's import. […] Ki values indicate the binding affinity of the compounds for the PAT. Using competition experiments with radiolabeled spermidine, we were able to rank the binding affinity of the compounds for the PAT. Low Ki values mean the compound has a high binding affinity for the PAT.

[3] = test system: L1210 cells; experiment: L1210 cytotoxicity; assay type: cell-based; details: Mus musculus, without DFMO
Protocol: (§1) L1210 cells are mouse leukemia cells and are a standard well used benchmark for evaluating cytotoxicity of new drug systems, especially polyamine containing drugs.
(§2) Cytotoxicity experiments were also performed in murine leukemia cells (L1210, Table 3) with and without the presence of difluoromethylornithine (DFMO), a known inhibitor of ornithine decarboxylase (the enzyme responsible for polyamine biosynthesis). Typically, when one blocks the ability of cells to synthesize polyamines, the cells respond by increasing their import of extracellular polyamines via PAT. Therefore, if our drugs are PAT-selective we should see a lowering of their respective IC50 values in the presence of DFMO, a molecule which facilitates the drug's import. […] Ki values indicate the binding affinity of the compounds for the PAT. Using competition experiments with radiolabeled spermidine, we were able to rank the binding affinity of the compounds for the PAT. Low Ki values mean the compound has a high binding affinity for the PAT.

[4] = target: polyamine transporter (PAT); experiment: PAT binding affinity, competition with radiolabeled spermidine in L1210; parameters: species or system mouse; details: L1210 cells
Protocol: “Ki value” reflects the affinity of the drug architecture for the polyamine transporter. The lower the value of the Ki, the higher the affinity of the drug for the polyamine transporter.
as §2

[5] = test system: CHO cells; experiment: CHO wild type cytotoxicity (active polyamine transport); assay type: cell-based, Chinese hamster; details: for IC50: Cricetulus griseus, CHO wild type cells, active PAT; for CHOMG/CHO IC50 Ratio: IC50 in CHOMG / IC50 in CHO, PAT selectivity
Protocol: Chinese hamster ovary cells (CHO cells) have an active polyamine transporter. This cell type is very susceptible to drugs which use the polyamine transporter system to gain access to cells (i.e. polyamine conjugates). The PAT targeting selectivity was determined using a Chinese hamster cell assay. The CHO wild type cells have active polyamine transport activity and therefore should be very susceptible to the polyamine conjugate and give low IC50 values. […] The lower the value the more cytotoxic the drug is to that cell type. In contrast, the mutant CHO-MG cells, which have no PAT activity are not as sensitive to the polyamine conjugate (which is unable to enter these cells via the defective PAT) and give higher IC50 values. We express these as a ratio of the IC50 value in CHOMG/IC50 value in CHO. The higher the ratio the more PAT selective is the polyamine conjugate drug. […] Cytotoxicity experiments were also performed in murine leukemia cells (L1210, Table 3) with and without the presence of difluoromethylornithine (DFMO), a known inhibitor of ornithine decarboxylase (the enzyme responsible for polyamine biosynthesis). Typically, when one blocks the ability of cells to synthesize polyamines, the cells respond by increasing their import of extracellular polyamines via PAT. Therefore, if our drugs are PAT-selective we should see a lowering of their respective IC50 values in the presence of DFMO, a molecule which facilitates the drug's import. […] Ki values indicate the binding affinity of the compounds for the PAT. Using competition experiments with radiolabeled spermidine, we were able to rank the binding affinity of the compounds for the PAT. Low Ki values mean the compound has a high binding affinity for the PAT.

[6] = test system: L1210 cells; experiment: L1210 cytotoxicity in presence of DFMO; assay type: cell-based, mouse; details: in the presence of DFMO
Protocol: as §1, §2

Chain of Topoisomerase IIalpha (Topo IIa) (P11388 whole entry): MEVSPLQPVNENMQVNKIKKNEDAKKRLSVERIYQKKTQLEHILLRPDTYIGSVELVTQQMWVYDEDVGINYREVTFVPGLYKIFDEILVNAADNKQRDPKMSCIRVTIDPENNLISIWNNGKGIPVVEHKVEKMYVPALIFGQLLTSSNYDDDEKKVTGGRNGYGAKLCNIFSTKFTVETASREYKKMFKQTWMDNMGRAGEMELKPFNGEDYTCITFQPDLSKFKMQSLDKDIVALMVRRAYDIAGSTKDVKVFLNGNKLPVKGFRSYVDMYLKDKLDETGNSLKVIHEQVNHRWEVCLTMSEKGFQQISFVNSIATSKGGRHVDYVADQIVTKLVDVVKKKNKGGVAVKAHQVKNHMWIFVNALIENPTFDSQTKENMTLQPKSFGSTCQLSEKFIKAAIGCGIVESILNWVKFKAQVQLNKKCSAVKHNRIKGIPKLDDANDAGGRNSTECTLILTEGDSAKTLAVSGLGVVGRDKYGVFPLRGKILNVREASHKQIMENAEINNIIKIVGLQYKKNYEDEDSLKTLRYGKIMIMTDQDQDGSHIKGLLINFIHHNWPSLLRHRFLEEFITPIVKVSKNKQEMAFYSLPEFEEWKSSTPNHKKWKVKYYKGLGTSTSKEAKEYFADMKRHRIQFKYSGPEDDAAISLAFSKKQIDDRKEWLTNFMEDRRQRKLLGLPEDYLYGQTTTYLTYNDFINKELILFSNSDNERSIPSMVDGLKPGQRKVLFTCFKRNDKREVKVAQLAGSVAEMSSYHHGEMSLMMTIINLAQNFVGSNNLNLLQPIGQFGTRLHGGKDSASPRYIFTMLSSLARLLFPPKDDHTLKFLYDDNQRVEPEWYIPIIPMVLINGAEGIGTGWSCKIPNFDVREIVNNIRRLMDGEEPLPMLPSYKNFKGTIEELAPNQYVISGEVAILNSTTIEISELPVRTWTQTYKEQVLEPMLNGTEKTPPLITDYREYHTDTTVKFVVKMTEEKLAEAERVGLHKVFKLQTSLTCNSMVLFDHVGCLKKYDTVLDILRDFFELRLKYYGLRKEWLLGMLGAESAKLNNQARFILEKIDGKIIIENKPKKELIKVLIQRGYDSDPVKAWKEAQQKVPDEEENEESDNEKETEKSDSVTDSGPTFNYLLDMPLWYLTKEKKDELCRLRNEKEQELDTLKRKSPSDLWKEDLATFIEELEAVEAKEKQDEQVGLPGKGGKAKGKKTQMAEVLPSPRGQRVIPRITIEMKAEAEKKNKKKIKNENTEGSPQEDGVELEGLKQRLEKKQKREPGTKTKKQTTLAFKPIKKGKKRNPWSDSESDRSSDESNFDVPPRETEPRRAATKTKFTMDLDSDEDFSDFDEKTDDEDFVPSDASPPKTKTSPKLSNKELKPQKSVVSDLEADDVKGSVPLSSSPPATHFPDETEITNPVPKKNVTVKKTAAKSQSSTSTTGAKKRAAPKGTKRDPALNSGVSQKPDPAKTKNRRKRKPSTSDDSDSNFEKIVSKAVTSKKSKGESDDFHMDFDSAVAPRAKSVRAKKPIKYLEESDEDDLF

| Topo II inhibition (kDNA remaining in well) ([1]; 50 μM, inhibitory control) | Ki [4] [nM] | Topo II inhibition (kDNA remaining undecatenated) ([1]; 5 μM, kDNA 200 ng, Topo IIa 4 units) | Type of Topo II inhibition ([1]; inhibition increased with drug concentration) | Compound | IC50 [2] [nM] | IC50 [3] [nM] | IC50 [5] [nM] | CHOMG/CHO IC50 Ratio [5] | IC50 ([6]; Mus musculus, L1210) [nM] | CHOMG/CHO IC50 Ratio ([5]; Hydrochloride salt) | IC50 [6] [nM] |
| --- | --- | --- | --- | --- | --- | --- | --- | --- | --- | --- | --- |
| good inhibition | – | – | – | CC(=O)NCC(=O)O.CC(=O)NCC(=O)O.N=C(N)c1ccc(N=NNc2ccc(C(=N)N)cc2)cc1 [Berenil, reference compound] | – | – | – | – | – | – | – |
| – | 520 ± 110 | – | – | Cl.NCCCCNCCCCNCc1ccc(CNCCCCNCCCCN)cc1 [Compound 10, N-(4-Amino-butyl)-N′-(4-{[4-(4-amino-butylamino)-butylamino]-methyl}-benzyl)-butane-1,4-diamine, Hydrochloride salt] | 50200 ± 3800 | 160 ± 10 | 74 ± 10 | 677 | 360 ± 30 | – | – |
| – | 170 ± 20 | – | – | Cl.NCCCCNCCCCNCc1ccc(CNCCCCNCCCCN)c2ccccc12 [Compound 7, N-(4-Amino-butyl)-N′-(4-{[4-(4-amino-butylamino)-butylamino]-methyl}-naphthalen-1-ylmethyl)-butane-1,4-diamine, Hydrochloride salt] | > 100000 | 250 ± 80 | 120 ± 30 | >833 | – | – | – |
| – | 390 ± 50 | good inhibition | catalytic Topo-II inhibitors | Cl.NCCCCNCCCCNCc1c2ccccc2c(CNCCCCNCCCCN)c2ccccc12 [Compound 4, N-(4-Amino-butyl)-N′-(10-{[4-(4-amino-butylamino)-butylamino]-methyl}-anthracen-9-ylmethyl)-butane-1,4-diamine, Hydrochloride salt] | > 100000 | 780 ± 70 | 45 ± 3 | – | 220 ± 80 | >2222 | – |
| – | 490 ± 20 | – | – | NCCCCNCCCCNCc1cc(CNCCCCNCCCCN)cc(CN(CCCCN)CCCCN)c1 [Compound 15, N-(4-Amino-butyl)-N-(3,5-bis-{[4-(4-amino-butylamino)-butylamino]-methyl}-benzyl)-butane-1,4-diamine, nona-Hydrochloride Salt] | > 500000 | 122000 ± 8100 | > 500000 | – | – | – | 49300 ± 10000 |

From patent publication US9150495B2, “Polyamine transporter selective compounds as anti cancer agents” (University of Central Florida Research Foundation, Inc., priority 2007, dated 2015)
